Measured values: patent US7528138B2, “Pyrazolo[1,5-a]pyrimidines useful as inhibitors of protein kinases” (Vertex Pharmaceuticals Incorporated, priority 2004, dated 2009)

Experiments:
Assay type in all cases: biochemical
Aurora-2 = target: T1, Aurora-2 (Homo sapiens, UniProt O14965); assay: Aurora-A (Aurora-2) Inhibition Assay, coupled enzyme assay; conditions: enzyme inhibition data (Ki), Table 11; read-out: AurA Ki
T1 sequence (O14965 1-403): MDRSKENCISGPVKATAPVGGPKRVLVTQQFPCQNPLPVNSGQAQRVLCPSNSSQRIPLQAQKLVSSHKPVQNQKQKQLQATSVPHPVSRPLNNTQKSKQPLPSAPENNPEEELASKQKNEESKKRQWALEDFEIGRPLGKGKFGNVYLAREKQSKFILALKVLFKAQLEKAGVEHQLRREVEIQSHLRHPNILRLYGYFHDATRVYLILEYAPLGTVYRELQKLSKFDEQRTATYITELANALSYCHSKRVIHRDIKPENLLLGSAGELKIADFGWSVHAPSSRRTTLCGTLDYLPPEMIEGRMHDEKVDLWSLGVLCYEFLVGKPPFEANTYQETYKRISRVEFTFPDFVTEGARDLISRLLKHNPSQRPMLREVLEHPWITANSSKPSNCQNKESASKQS
In short: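 Coupled pyruvate kinase/lactate dehydrogenase assay following NADH, pH 7.5 Hepes, 40 nM Aurora-2, 400 μM ATP and 570 μM Kemptide at 30 °C. Compound (top final typically 7.5 μM) preincubated 10 min; initial rates over 10 min; IC50 and Ki by non-linear regression.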

c-Met = c-Met (Homo sapiens, UniProt P08581); assay: c-Met Inhibition Assay, coupled enzyme system; conditions: enzyme inhibition data (Ki), Table 11
c-Met, sequence (P08581 25-1390): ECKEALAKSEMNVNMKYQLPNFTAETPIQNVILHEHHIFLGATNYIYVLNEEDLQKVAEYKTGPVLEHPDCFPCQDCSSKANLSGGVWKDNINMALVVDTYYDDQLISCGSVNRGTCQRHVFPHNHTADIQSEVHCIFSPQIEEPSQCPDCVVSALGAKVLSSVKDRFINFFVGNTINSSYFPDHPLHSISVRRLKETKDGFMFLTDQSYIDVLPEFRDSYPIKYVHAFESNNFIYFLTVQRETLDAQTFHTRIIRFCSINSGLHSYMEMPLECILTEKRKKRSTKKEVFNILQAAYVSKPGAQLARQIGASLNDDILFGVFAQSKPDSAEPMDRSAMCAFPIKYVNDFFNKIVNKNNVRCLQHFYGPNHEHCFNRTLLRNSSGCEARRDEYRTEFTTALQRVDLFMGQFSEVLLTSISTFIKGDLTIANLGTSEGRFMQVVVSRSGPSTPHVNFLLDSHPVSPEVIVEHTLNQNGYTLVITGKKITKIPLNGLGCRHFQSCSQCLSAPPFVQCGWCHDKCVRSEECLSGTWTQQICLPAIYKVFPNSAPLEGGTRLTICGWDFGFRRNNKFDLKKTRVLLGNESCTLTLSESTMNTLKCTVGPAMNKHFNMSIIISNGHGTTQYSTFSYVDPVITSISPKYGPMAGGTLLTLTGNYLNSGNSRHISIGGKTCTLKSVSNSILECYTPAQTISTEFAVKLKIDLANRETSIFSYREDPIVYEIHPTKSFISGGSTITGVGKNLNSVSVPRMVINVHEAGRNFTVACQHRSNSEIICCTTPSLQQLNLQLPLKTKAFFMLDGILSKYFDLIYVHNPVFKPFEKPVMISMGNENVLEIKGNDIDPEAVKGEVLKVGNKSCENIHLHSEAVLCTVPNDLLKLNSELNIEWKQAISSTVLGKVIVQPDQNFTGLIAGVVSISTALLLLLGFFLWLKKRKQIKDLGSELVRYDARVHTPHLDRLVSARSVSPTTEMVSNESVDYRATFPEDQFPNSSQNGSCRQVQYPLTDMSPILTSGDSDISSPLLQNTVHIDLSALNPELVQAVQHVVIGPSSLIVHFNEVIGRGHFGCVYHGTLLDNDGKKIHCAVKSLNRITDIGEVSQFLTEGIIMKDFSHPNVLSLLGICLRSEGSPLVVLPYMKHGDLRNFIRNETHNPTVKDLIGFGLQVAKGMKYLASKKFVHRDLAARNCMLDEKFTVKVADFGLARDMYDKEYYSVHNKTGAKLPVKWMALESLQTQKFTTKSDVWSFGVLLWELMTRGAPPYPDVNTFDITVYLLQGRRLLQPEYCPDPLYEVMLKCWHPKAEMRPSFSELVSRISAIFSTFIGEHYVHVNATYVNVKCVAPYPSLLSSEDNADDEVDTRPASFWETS
In short: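 Pyruvate kinase/lactate dehydrogenase-coupled NADH assay in HEPES pH 7.5 with 80 nM c-Met, 200 μM ATP and 10 μM polyGluTyr at 30° C. Compound (0.006–12.5 μM final, 12-point) preincubated 10 min before ATP start; rates over 10 min gave Ki.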

Aurora-B = Aurora-B (Homo sapiens, UniProt Q96GD4); assay: Aurora B (Aurora-1) Inhibition Assay, 33P incorporation; conditions: enzyme inhibition data (Ki), Table 11; read-out: AurB Ki
Aurora-B, sequence (Q96GD4 whole entry): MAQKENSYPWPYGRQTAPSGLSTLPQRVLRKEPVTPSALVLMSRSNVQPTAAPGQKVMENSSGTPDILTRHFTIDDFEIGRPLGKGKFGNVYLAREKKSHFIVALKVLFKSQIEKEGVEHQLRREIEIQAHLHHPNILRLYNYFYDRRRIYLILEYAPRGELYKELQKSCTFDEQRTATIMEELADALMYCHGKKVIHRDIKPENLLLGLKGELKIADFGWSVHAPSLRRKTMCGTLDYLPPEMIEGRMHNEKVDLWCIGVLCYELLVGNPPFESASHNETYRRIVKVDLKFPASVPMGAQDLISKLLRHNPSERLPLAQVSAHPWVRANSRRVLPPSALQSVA
Method: An assay buffer solution is prepared which consists of 25 mM HEPES (pH 7.5), 10 mM MgCl2, 0.1% BSA and 10% glycerol. A 22 nM Aurora-B solution, also containing 1.7 mM DTT and 1.5 mM Kemptide (LRRASLG), is prepared in assay buffer. To 22 μL of the Aurora-B solution, in a 96-well plate, is added 2 μl of a compound stock solution in DMSO and the mixture is allowed to equilibrate for 10 minutes at 25° C. The enzyme reaction is initiated by the addition of 16 μl stock [γ-^33P]-ATP solution (˜20 nCi/μL) prepared in assay buffer, to a final assay concentration of 800 μM. The reaction is stopped after 3 hours by the addition of 16 μL 500 mM phosphoric acid and the levels of ^33P incorporation into the peptide substrate is determined by the following method.
A phosphocellulose 96-well plate (Millipore, Cat no. MAPHNOB50) is pre-treated with 100 μL of a 100 mM phosphoric acid prior to the addition of the enzyme reaction mixture (40 μL). The solution is left to soak on to the phosphocellulose membrane for 30 minutes and the plate subsequently is washed four times with 200 μL of a 100 mM phosphoric acid. To each well of the dry plate is added 30 μL of Optiphase ‘SuperMix’ liquid scintillation cocktail (Perkin Elmer) prior to scintillation counting (1450 Microbeta Liquid Scintillation Counter, Wallac). Levels of non-enzyme catalysed background radioactivity are determined by adding 16 μL of the 500 mM phosphoric acid to control wells, containing all assay components (which acts to denature the enzyme), prior to the addition of the [γ-^33P]-ATP solution. Levels of enzyme catalysed ^33P incorporation are calculated by subtracting mean background counts from those measured at each inhibitor concentration. For each Ki determination 8 data points, typically covering the concentration range 0-10 μM compound, are obtained in duplicate (DMSO stocks are prepared from an initial compound stock of 10 mM with subsequent 1:2.5 serial dilutions). Ki values are calculated from initial rate data by non-linear regression using the Prism software package (Prism 3.0, Graphpad Software, San Diego, Calif.).

| Ki (Aurora-2) [nM] | Ki (c-Met) [nM] | Ki (Aurora-B) [nM] | Structure (SMILES) |
| --- | --- | --- | --- |
| 500 to 5000 | < 500 |  | Cc1cnc2c(-c3cc(NC4CCC4)ncn3)c(N)nn2c1 [Compound V-290] |
| < 500 | < 500 |  | CCN1CCN(C(=O)c2ccc(-c3cnc4c(-c5ccccn5)c(N)nn4c3)nc2)C(O)C1 (stereo not drawn) [Compound V-78] |
| < 500 | < 500 |  | CC(C)N(C)C(=O)c1ccc(-c2cnc3c(-c4ccccn4)c(N)nn3c2)nc1 [Compound V-67] |
| < 500 | < 500 |  | Nc1nn2cc(-c3ccc(C(=O)N4CCC(CCO)CC4)cn3)cnc2c1-c1ccccn1 [Compound V-83] |
| 500 to 5000 | < 500 |  | Cc1cnc2c(-c3cc(NC4CC4)ncn3)c(N)nn2c1 [Compound V-289] |
| 500 to 5000 | 500 to 5000 |  | CCOC(=O)c1c(N)nn2cc(-c3ccc(Cl)cc3)cnc12 [Compound V-24] |
| < 500 | < 500 |  | Nc1nn2cc(-c3ccc(C(=O)N4CCC(N)C4)cn3)cnc2c1-c1ccccn1 (stereo not drawn) [Compound V-81] |
| 500 to 5000 | < 500 |  | Cc1cnc2c(-c3cc(NC4CCCCC4)ncn3)c(N)nn2c1 [Compound V-291] |
| 500 to 5000 | < 500 |  | Nc1nn2cc(-c3ccc(C(=O)NCCF)cn3)cnc2c1-c1ccccn1 [Compound V-73] |
| 500 to 5000 | < 500 |  | CC(C)N1CCN(c2ccc(-c3cnc4c(-c5ccccn5)c(N)nn4c3)cc2)CC1 [Compound V-51] |
| < 500 | < 500 |  | Nc1nn2cc(-c3ccc(C(=O)N4CCCC(CO)C4)cn3)cnc2c1-c1ccccn1 (stereo not drawn) [Compound V-71] |
| < 500 | < 500 |  | CCCN(CCO)C(=O)c1ccc(-c2cnc3c(-c4ccccn4)c(N)nn3c2)nc1 [Compound V-92] |
| 500 to 5000 | < 500 |  | CN(CCN)C(=O)c1ccc(-c2cnc3c(-c4ccccn4)c(N)nn3c2)nc1 [Compound V-94] |
| 500 to 5000 | < 500 |  | Cc1cnc2c(-c3cc(N4CCCCC4)ncn3)c(N)nn2c1 [Compound V-276] |
| 500 to 5000 | < 500 |  | CN(C)CCNC(=O)c1ccc(-c2cnc3c(-c4ccccn4)c(N)nn3c2)nc1 [Compound V-65] |
| 500 to 5000 | < 500 |  | Cc1cnc2c(-c3cc(NC4CCN(Cc5ccccc5)C4)ncn3)c(N)nn2c1 (stereo not drawn) [Compound V-286] |
| 500 to 5000 | < 500 |  | CSc1cc(-c2c(N)nn3cc(C)cnc23)ncn1 [Compound V-281] |
| 500 to 5000 | < 500 |  | Cc1cnc2c(-c3cc(NCC4CCCO4)ncn3)c(N)nn2c1 (stereo not drawn) [Compound V-278] |
| 500 to 5000 | < 500 |  | Cc1cnc2c(-c3cc(NCC4CC4)ncn3)c(N)nn2c1 [Compound V-277] |
| 500 to 5000 | < 500 |  | CCN(CCN)C(=O)c1ccc(-c2cnc3c(-c4ccccn4)c(N)nn3c2)nc1 [Compound V-62] |
| 500 to 5000 | < 500 |  | Nc1nn2cc(N3CCOCC3)cnc2c1-c1ccccn1 [Compound V-57] |
| 500 to 5000 | < 500 |  | Cc1cnc2c(-c3cc(N[C@@H](C)CO)ncn3)c(N)nn2c1 [Compound V-295] |
| 500 to 5000 | < 500 |  | CN(C)CCNC(=O)c1cccc(-c2cnc3c(-c4ccccn4)c(N)nn3c2)c1 [Compound V-54] |
| < 500 | < 500 |  | CCOC(=O)N1CCN(C(=O)c2ccc(-c3cnc4c(-c5ccccn5)c(N)nn4c3)nc2)CC1 [Compound V-76] |
| < 500 | < 500 |  | Nc1nn2cc(-c3ccc(C(=O)N4CCSCC4)cn3)cnc2c1-c1ccccn1 [Compound V-87] |

| Ki (Aurora-2) [nM] | Ki (c-Met) [nM] | Ki (Aurora-B) [nM] | Structure (SMILES) |
| --- | --- | --- | --- |
| < 500 | < 500 |  | Nc1nn2cc(-c3ccc(C(=O)N4CCC[C@@H]4CO)cn3)cnc2c1-c1ccccn1 [Compound V-93] |
| < 500 | < 500 |  | COCCN1CCN(C(=O)c2ccc(-c3cnc4c(-c5ccccn5)c(N)nn4c3)nc2)CC1 [Compound V-68] |
| 500 to 5000 | < 500 |  | CN1CCN(C(=O)c2cccc(-c3cnc4c(-c5ccccn5)c(N)nn4c3)c2)CC1 [Compound V-55] |
| < 500 | < 500 |  | C#CCN(C)C(=O)c1ccc(-c2cnc3c(-c4ccccn4)c(N)nn3c2)nc1 [Compound V-72] |
| 500 to 5000 | < 500 |  | Nc1nn2cc(-c3ccc(C(=O)N4CCC4)cn3)cnc2c1-c1ccccn1 [Compound V-86] |
| 500 to 5000 | < 500 | 500 to 5000 | Cc1cnc2c(-c3cc(NC(C)C)ncn3)c(N)nn2c1 [Compound V-273] |
| < 500 | < 500 |  | CCN(CCC#N)C(=O)c1ccc(-c2cnc3c(-c4ccccn4)c(N)nn3c2)nc1 [Compound V-90] |
| 500 to 5000 | < 500 |  | CC[C@H](C)Nc1cc(-c2c(N)nn3cc(C)cnc23)ncn1 [Compound V-294] |
| 500 to 5000 | 500 to 5000 |  | COc1ccc(-c2cnc3c(C#N)c(N)nn3c2)cc1 [Compound V-2] |
| 500 to 5000 | 500 to 5000 |  | CCN(C(=O)c1c(N)nn2cc(-c3ccncn3)cnc12)C(C)C [Compound V-33] |
| 500 to 5000 | < 500 |  | CCCN(CCCN)C(=O)c1ccc(-c2cnc3c(-c4ccccn4)c(N)nn3c2)nc1 [Compound V-85] |
| < 500 | 500 to 5000 |  | Nc1nn2cc(Cl)cnc2c1-c1ccccn1 [Compound V-280] |
| 500 to 5000 | < 500 |  | CCN(CCCCN)C(=O)c1ccc(-c2cnc3c(-c4ccccn4)c(N)nn3c2)nc1 [Compound V-74] |
| < 500 | < 500 |  | COCCN(C)C(=O)c1ccc(-c2cnc3c(-c4ccccn4)c(N)nn3c2)nc1 [Compound V-75] |
| < 500 | < 500 |  | CCN(C)C(=O)c1ccc(-c2cnc3c(-c4ccccn4)c(N)nn3c2)nc1 [Compound V-89] |
| 500 to 5000 | < 500 |  | Cc1cnc2c(-c3cc(NC4CCN(Cc5ccccc5)CC4)ncn3)c(N)nn2c1 [Compound V-285] |
| < 500 | < 500 |  | Nc1nn2cc(-c3ccc(C(=O)N4CCC[C@@H](O)C4)cn3)cnc2c1-c1ccccn1 [Compound V-79] |
| 500 to 5000 | < 500 |  | COc1ccncc1-c1cnc2c(-c3ccccn3)c(N)nn2c1 [Compound V-22] |
| < 500 | < 500 |  | COC(=O)N1CCN(C(=O)c2ccc(-c3cnc4c(-c5ccccn5)c(N)nn4c3)nc2)CC1 [Compound V-64] |
| 500 to 5000 | < 500 |  | Cc1cnc2c(-c3cc(N[C@H](C)CO)ncn3)c(N)nn2c1 [Compound V-293] |
| < 500 | < 500 |  | CCN1CCN(C(=O)c2ccc(-c3cnc4c(-c5ccccn5)c(N)nn4c3)nc2)CC1 [Compound V-63] |
| 500 to 5000 | < 500 |  | Nc1nn2cc(-c3ccc(C(=O)N4CCCCC4CCO)cn3)cnc2c1-c1ccccn1 (stereo not drawn) [Compound V-82] |
| 500 to 5000 | < 500 | 500 to 5000 | COc1ccccc1Nc1cc(-c2c(N)nn3cc(C)cnc23)ncn1 [Compound V-274] |
| < 500 | < 500 |  | CN1CCCN(C(=O)c2ccc(-c3cnc4c(-c5ccccn5)c(N)nn4c3)nc2)CC1 [Compound V-70] |
| < 500 | < 500 |  | Cc1cnc2c(-c3cc(Nc4ccccc4)ncn3)c(N)nn2c1 [Compound V-279] |
